Experimental data published in the supplement of paper PMC10307832.

Key:
Assay in all cases: relative viability (nuclei count vs DMSO), 5 days (fraction); higher = more cells survive
201T = tested on: 201T
How it was run: (§1)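 Cells from lung cancer lines were seeded into 1536-well plates and, one day later, dosed by pin tool. Treatments were either a single drug or a fixed dose of an anchor drug with five library-drug doses (not always all listed) in √10 steps. After 5 days, nuclei were stained in a one-step fixation (final 0.05% Triton X-100, 1% formaldehyde, 1 ug/ml Hoechst) and counted on 4× images, and relative viability is the treated-to-vehicle nuclei ratio, as the median of duplicate plates.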

ABC-1 = tested on: ABC-1
How it was run: as §1

BEN = tested on: BEN
How it was run: as §1

CAL-12T = tested on: CAL-12T
How it was run: as §1

COR-L 105 = tested on: COR-L 105
How it was run: as §1

EKVX = tested on: EKVX
How it was run: as §1

EMC-BAC-2 = tested on: EMC-BAC-2
How it was run: as §1

HCC-15 = tested on: HCC-15
How it was run: as §1

HCC-44 = tested on: HCC-44
How it was run: as §1

LK-2 = tested on: LK-2
How it was run: as §1

LU99A = tested on: LU99A
How it was run: as §1

NCI-H1563 = tested on: NCI-H1563
How it was run: as §1

NCI-H1651 = tested on: NCI-H1651
How it was run: as §1

NCI-H2023 = tested on: NCI-H2023
How it was run: as §1

NCI-H322M = tested on: NCI-H322M
How it was run: as §1

NCI-H358 = tested on: NCI-H358
How it was run: as §1

NCI-H460 = tested on: NCI-H460
How it was run: as §1

NCI-H520 = tested on: NCI-H520
How it was run: as §1

NCI-H727 = tested on: NCI-H727
How it was run: as §1

NCI-H838 = tested on: NCI-H838
How it was run: as §1

PC-3 [JPC-3] = tested on: PC-3 [JPC-3]
How it was run: as §1

CCNC(=O)c1noc(-c2cc(C(C)C)c(O)cc2O)c1-c1ccc(CN2CCOCC2)cc1 [Luminespib] + CS(=O)(=O)N1CCN(Cc2cc3nc(-c4cccc5[nH]ncc45)nc(N4CCOCC4)c3s2)CC1 [Pictilisib] (partner 1 µM)
relative viability (201T; first compound 0.002 µM): 0.647 | relative viability (201T; first compound 0.006325 µM): 0.693 | relative viability (201T; first compound 0.02 µM): 0.649 | relative viability (201T; first compound 0.06325 µM): 0.721 | relative viability (201T; first compound 0.2 µM): 0.58 | relative viability (ABC-1; first compound 0.002 µM): 0.695 | relative viability (ABC-1; first compound 0.006325 µM): 0.693 | relative viability (ABC-1; first compound 0.02 µM): 0.407 | relative viability (ABC-1; first compound 0.06325 µM): 0.249 | relative viability (ABC-1; first compound 0.2 µM): 0.228 | relative viability (BEN; first compound 0.002 µM): 0.514 | relative viability (BEN; first compound 0.006325 µM): 0.597 | relative viability (BEN; first compound 0.02 µM): 0.332 | relative viability (BEN; first compound 0.06325 µM): 0.266 | relative viability (BEN; first compound 0.2 µM): 0.191 | relative viability (CAL-12T; first compound 0.002 µM): 0.336 | relative viability (CAL-12T; first compound 0.006325 µM): 0.395 | relative viability (CAL-12T; first compound 0.02 µM): 0.25 | relative viability (CAL-12T; first compound 0.06325 µM): 0.111 | relative viability (CAL-12T; first compound 0.2 µM): 0.143 | relative viability (COR-L 105; first compound 0.002 µM): 0.386 | relative viability (COR-L 105; first compound 0.006325 µM): 0.488 | relative viability (COR-L 105; first compound 0.02 µM): 0.248 | relative viability (COR-L 105; first compound 0.06325 µM): 0.223 | relative viability (COR-L 105; first compound 0.2 µM): 0.254 | relative viability (EKVX; first compound 0.002 µM): 0.392 | relative viability (EKVX; first compound 0.006325 µM): 0.46 | relative viability (EKVX; first compound 0.02 µM): 0.229 | relative viability (EKVX; first compound 0.06325 µM): 0.226 | relative viability (EKVX; first compound 0.2 µM): 0.0934 | relative viability (EMC-BAC-2; first compound 0.002 µM): 0.54 | relative viability (EMC-BAC-2; first compound 0.006325 µM): 0.511 | relative viability (EMC-BAC-2; first compound 0.02 µM): 0.417 | relative viability (EMC-BAC-2; first compound 0.06325 µM): 0.573 | relative viability (EMC-BAC-2; first compound 0.2 µM): 0.163 | relative viability (HCC-15; first compound 0.002 µM): 0.724 | relative viability (HCC-15; first compound 0.006325 µM): 0.644 | relative viability (HCC-15; first compound 0.02 µM): 0.623 | relative viability (HCC-15; first compound 0.06325 µM): 0.413 | relative viability (HCC-15; first compound 0.2 µM): 0.157 | relative viability (HCC-44; first compound 0.002 µM): 0.663 | relative viability (HCC-44; first compound 0.006325 µM): 0.641 | relative viability (HCC-44; first compound 0.02 µM): 0.62 | relative viability (HCC-44; first compound 0.06325 µM): 0.381 | relative viability (HCC-44; first compound 0.2 µM): 0.12 | relative viability (LK-2; first compound 0.002 µM): 0.569 | relative viability (LK-2; first compound 0.006325 µM): 0.548 | relative viability (LK-2; first compound 0.02 µM): 0.373 | relative viability (LK-2; first compound 0.06325 µM): 0.312 | relative viability (LK-2; first compound 0.2 µM): 0.218 | relative viability (LU99A; first compound 0.002 µM): 0.351 | relative viability (LU99A; first compound 0.006325 µM): 0.36 | relative viability (LU99A; first compound 0.02 µM): 0.226 | relative viability (LU99A; first compound 0.06325 µM): 0.153 | relative viability (LU99A; first compound 0.2 µM): 0.112 | relative viability (NCI-H1563; first compound 0.002 µM): 0.721 | relative viability (NCI-H1563; first compound 0.006325 µM): 0.605 | relative viability (NCI-H1563; first compound 0.02 µM): 0.616 | relative viability (NCI-H1563; first compound 0.06325 µM): 0.525 | relative viability (NCI-H1563; first compound 0.2 µM): 0.551 | relative viability (NCI-H1651; first compound 0.002 µM): 0.592 | relative viability (NCI-H1651; first compound 0.006325 µM): 0.608 | relative viability (NCI-H1651; first compound 0.02 µM): 0.403 | relative viability (NCI-H1651; first compound 0.06325 µM): 0.136 | relative viability (NCI-H1651; first compound 0.2 µM): 0.162 | relative viability (NCI-H2023; first compound 0.002 µM): 0.274 | relative viability (NCI-H2023; first compound 0.006325 µM): 0.243 | relative viability (NCI-H2023; first compound 0.02 µM): 0.105 | relative viability (NCI-H2023; first compound 0.06325 µM): 0.0887 | relative viability (NCI-H2023; first compound 0.2 µM): 0.0954 | relative viability (NCI-H322M; first compound 0.002 µM): 0.497 | relative viability (NCI-H322M; first compound 0.006325 µM): 0.525 | relative viability (NCI-H322M; first compound 0.02 µM): 0.447 | relative viability (NCI-H322M; first compound 0.06325 µM): 0.485 | relative viability (NCI-H322M; first compound 0.2 µM): 0.3 | relative viability (NCI-H358; first compound 0.002 µM): 0.342 | relative viability (NCI-H358; first compound 0.006325 µM): 0.311 | relative viability (NCI-H358; first compound 0.02 µM): 0.222 | relative viability (NCI-H358; first compound 0.06325 µM): 0.133 | relative viability (NCI-H358; first compound 0.2 µM): 0.124 | relative viability (NCI-H460; first compound 0.002 µM): 0.35 | relative viability (NCI-H460; first compound 0.006325 µM): 0.243 | relative viability (NCI-H460; first compound 0.02 µM): 0.372 | relative viability (NCI-H460; first compound 0.06325 µM): 0.116 | relative viability (NCI-H460; first compound 0.2 µM): 0.0892 | relative viability (NCI-H520; first compound 0.002 µM): 0.298 | relative viability (NCI-H520; first compound 0.006325 µM): 0.334 | relative viability (NCI-H520; first compound 0.02 µM): 0.209 | relative viability (NCI-H520; first compound 0.06325 µM): 0.176 | relative viability (NCI-H520; first compound 0.2 µM): 0.196 | relative viability (NCI-H727; first compound 0.002 µM): 0.427 | relative viability (NCI-H727; first compound 0.006325 µM): 0.399 | relative viability (NCI-H727; first compound 0.02 µM): 0.264 | relative viability (NCI-H727; first compound 0.06325 µM): 0.123 | relative viability (NCI-H727; first compound 0.2 µM): 0.166 | relative viability (NCI-H838; first compound 0.002 µM): 0.48 | relative viability (NCI-H838; first compound 0.006325 µM): 0.441 | relative viability (NCI-H838; first compound 0.02 µM): 0.223 | relative viability (NCI-H838; first compound 0.06325 µM): 0.117 | relative viability (NCI-H838; first compound 0.2 µM): 0.111 | relative viability (PC-3 [JPC-3]; first compound 0.002 µM): 0.756 | relative viability (PC-3 [JPC-3]; first compound 0.006325 µM): 0.726 | relative viability (PC-3 [JPC-3]; first compound 0.02 µM): 0.626 | relative viability (PC-3 [JPC-3]; first compound 0.06325 µM): 0.578 | relative viability (PC-3 [JPC-3]; first compound 0.2 µM): 0.286
